For one data set, the system named is Rattus norvegicus. Put plainly: Anti-inflammatory activity against carrageenan-induced paw edema in Albino rat assessed as inhibition of paw edema at 50 mg/kg, po relative to control. It is filed as functional. Also on record: scale not given: the % may be the effect or the level left. For orientation: The carrageenan paw model is a standard test of acute inflammation.

Data set [1] deals with Amine oxidase [flavin-containing] A (Homo sapiens, UniProt P21397). The experiment in a line: Inhibition of human MAO-A measured after 25 mins by Amplex Red reagent based fluorescence analysis.
Sequence of Amine oxidase [flavin-containing] A (P21397 whole entry): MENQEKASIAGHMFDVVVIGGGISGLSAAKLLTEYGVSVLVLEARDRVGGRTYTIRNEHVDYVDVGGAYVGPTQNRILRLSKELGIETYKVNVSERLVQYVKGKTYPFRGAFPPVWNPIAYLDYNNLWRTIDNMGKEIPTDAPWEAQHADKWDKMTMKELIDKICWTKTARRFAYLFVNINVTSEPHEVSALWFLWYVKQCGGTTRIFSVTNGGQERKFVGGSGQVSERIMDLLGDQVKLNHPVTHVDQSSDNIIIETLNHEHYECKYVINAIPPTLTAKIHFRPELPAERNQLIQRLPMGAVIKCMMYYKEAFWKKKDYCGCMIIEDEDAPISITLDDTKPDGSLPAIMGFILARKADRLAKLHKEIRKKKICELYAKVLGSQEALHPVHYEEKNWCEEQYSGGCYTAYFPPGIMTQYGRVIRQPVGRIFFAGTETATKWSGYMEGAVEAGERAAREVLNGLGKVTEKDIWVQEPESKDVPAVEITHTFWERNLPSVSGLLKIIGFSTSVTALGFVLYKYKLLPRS
A short description of data set [2]: Inhibition of urease (unknown origin).
Data set [3] has as its target Amine oxidase [flavin-containing] B (Homo sapiens, UniProt P27338). The experiment in a line: Inhibition of human MAO-B measured after 25 mins by Amplex Red reagent based fluorescence analysis.
In data set [4] the target is T1, Glucagon receptor (Homo sapiens, UniProt P47871). The experiment in a line: Antagonist activity at wild type human GCGR transfected in HEK293T cells assessed as intracellular cAMP accumulation incubated for 60 mins by FRET assay. It counts as functional, cell-based.
T1 sequence (P47871 whole entry): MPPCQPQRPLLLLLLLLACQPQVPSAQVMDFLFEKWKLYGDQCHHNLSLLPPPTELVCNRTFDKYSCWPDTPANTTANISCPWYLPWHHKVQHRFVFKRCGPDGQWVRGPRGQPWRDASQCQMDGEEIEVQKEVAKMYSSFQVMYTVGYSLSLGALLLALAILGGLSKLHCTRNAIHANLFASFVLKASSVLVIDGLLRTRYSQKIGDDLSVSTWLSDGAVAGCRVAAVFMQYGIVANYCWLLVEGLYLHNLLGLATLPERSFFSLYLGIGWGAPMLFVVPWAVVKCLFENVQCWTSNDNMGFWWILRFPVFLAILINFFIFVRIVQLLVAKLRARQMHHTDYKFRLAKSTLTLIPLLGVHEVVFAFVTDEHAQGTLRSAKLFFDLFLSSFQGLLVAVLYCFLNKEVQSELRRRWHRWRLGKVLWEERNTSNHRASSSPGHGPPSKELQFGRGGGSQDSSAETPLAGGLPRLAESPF
Data set [5] has as its target T1, Glucagon receptor. Put plainly: Antagonist activity at wild type human GCGR.
A short description of data set [6]: Half life in po dosed human. It is filed as ADME, organism-based. To be noted: in vivo.
Data set [7] is described as follows: Antioxidant activity assessed as DPPH radical scavenging activity. It is filed as functional. To be noted: read-out: IC50.
The nature of data set [8]: Half life in human, iv. It counts as ADME.
In data set [9] the test system is Bacillus subtilis. Put plainly: Antibacterial activity against Bacillus subtilis ATCC 6633 assessed as zone of inhibition incubated for 48 hrs by agar diffusion method. It counts as functional.
The next data set concerns Escherichia coli. The experiment in a line: Antibacterial activity against Escherichia coli ATCC 35218 assessed as zone of inhibition incubated for 48 hrs by agar diffusion method. It is filed as functional.
Data set [10] can be described thus: Antioxidant activity assessed as ROS scavenging activity relative to control. To be noted: dose or concentration not given here. It is filed as functional.
For data set [11], the target named is Vascular endothelial growth factor receptor 2 (Homo sapiens, UniProt P35968). Put plainly: Inhibition of VEGFR2 (unknown origin).
Sequence of Vascular endothelial growth factor receptor 2 (P35968 whole entry): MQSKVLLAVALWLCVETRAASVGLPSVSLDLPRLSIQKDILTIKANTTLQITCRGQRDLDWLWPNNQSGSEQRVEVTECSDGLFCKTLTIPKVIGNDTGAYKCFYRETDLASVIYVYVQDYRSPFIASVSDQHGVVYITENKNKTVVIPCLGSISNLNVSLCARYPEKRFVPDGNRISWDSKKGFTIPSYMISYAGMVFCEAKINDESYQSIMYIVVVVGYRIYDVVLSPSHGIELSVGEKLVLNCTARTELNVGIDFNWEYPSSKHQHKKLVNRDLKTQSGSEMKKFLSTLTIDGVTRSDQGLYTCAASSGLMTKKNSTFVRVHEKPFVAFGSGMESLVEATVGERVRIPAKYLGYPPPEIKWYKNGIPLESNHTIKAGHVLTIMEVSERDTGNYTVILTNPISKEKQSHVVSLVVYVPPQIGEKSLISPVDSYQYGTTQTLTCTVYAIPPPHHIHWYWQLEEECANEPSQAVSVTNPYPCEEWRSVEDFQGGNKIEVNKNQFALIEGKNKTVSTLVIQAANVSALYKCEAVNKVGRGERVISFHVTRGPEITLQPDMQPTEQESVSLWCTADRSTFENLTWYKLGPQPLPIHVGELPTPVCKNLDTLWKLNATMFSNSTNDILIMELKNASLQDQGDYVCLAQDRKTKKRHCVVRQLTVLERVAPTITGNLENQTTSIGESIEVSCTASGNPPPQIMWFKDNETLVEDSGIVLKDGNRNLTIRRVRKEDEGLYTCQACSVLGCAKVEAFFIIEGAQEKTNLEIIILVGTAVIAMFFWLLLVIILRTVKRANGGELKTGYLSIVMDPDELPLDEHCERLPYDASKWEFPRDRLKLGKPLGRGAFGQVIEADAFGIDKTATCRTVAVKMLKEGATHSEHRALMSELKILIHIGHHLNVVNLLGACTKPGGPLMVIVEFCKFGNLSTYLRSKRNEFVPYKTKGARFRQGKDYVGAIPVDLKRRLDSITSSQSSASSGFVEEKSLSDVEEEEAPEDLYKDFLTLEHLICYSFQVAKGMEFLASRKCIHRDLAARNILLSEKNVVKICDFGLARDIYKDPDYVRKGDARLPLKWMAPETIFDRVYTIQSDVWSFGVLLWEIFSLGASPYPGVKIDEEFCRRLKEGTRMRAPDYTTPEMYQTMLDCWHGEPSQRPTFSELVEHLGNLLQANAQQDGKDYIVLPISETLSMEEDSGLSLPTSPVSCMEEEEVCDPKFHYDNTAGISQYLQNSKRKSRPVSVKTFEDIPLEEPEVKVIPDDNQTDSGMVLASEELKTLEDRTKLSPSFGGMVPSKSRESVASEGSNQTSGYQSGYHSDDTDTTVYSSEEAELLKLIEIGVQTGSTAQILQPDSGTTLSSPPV
Data set [12] addresses Epidermal growth factor receptor (Homo sapiens, UniProt P00533). Put plainly: Inhibition of EGFR (unknown origin).
The target in data set [13] is T2, Polyunsaturated fatty acid 5-lipoxygenase (Homo sapiens, UniProt P09917).
T2 sequence (P09917 whole entry): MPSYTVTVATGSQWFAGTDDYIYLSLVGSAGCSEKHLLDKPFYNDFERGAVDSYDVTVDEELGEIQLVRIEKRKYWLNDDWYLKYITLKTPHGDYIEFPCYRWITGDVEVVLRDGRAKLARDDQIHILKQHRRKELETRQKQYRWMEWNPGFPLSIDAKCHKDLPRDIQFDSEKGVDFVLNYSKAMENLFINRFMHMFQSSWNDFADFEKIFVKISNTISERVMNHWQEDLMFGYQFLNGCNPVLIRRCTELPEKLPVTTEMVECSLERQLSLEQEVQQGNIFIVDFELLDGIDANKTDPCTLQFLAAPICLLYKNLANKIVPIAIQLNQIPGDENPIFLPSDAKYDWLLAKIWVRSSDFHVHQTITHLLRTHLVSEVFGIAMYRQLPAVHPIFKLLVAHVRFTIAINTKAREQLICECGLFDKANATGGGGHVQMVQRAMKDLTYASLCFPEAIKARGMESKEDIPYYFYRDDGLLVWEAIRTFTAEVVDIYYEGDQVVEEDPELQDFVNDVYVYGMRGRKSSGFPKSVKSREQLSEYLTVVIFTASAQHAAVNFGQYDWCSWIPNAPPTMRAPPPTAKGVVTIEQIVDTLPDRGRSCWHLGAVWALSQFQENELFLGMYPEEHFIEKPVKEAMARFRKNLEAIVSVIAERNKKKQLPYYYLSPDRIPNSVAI
Put plainly: Inhibition of 5-LOX (unknown origin).

In data set [14] the test system is Bacillus subtilis. Put plainly: Antibacterial activity against Bacillus subtilis ATCC 6633 assessed as zone of inhibition. It counts as functional.
A further data set deals with Staphylococcus aureus. Put plainly: Antibacterial activity against Staphylococcus aureus ATCC 25923 assessed as zone of inhibition. It is filed as functional.
Another data set relates to NCI-H460. Put plainly: Growth inhibition of human NCI-H460 cells incubated for 48 hrs by SRB assay. It counts as functional. A general note: In SRB staining, fixed cells bind dye roughly in proportion to their protein.
A further data set relates to MCF7. The experiment in a line: Growth inhibition of human MCF7 cells incubated for 48 hrs by SRB assay. It is filed as functional.
A further data set has as its system SF-268. The experiment in a line: Growth inhibition of human SF-268 cells incubated for 48 hrs by SRB assay. It counts as functional.
A short description of data set [15]: Antioxidant activity assessed as DPPH radical scavenging activity at 10 uM incubated for 30 mins by absorbance based assay relative to control. It is filed as functional. (The DPPH test is a chemical assay of radical scavenging.)
For another data set, the system named is Leishmania major. The experiment in a line: Antileishmanial activity against Leishmania major promastigotes MHOM/IL/80/Friedlin expressing firefly luciferase infected in rhesus monkey LLC-MK2 cells assessed as reduction in parasite growth incubated for 72 hrs by luciferase based luminescence analysis. It is filed as functional, organism-based. The conditions noted are these: LLC-MK2, 72 h.

From ChEMBL document CHEMBL6182828, “Medicinal chemistry-based perspectives on thiophene and its derivatives: exploring structural insights to discover plausible druggable leads” (RSC Med Chem, 2025) come the findings set out here.

Sequence of Amine oxidase [flavin-containing] B (P27338 whole entry): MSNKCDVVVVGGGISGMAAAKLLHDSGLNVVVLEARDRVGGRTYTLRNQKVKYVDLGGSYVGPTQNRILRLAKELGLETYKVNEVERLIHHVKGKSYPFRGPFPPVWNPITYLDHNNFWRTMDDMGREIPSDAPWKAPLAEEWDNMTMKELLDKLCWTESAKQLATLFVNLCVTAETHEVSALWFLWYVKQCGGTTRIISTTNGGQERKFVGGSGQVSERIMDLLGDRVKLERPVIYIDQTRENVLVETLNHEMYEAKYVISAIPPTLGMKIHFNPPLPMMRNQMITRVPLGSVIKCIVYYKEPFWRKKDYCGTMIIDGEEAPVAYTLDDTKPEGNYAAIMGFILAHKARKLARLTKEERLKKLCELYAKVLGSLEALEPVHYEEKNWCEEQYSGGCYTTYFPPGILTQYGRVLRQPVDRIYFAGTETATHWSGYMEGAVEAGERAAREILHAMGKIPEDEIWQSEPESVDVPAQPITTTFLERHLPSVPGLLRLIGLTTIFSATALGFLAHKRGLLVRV
Sequence of Epidermal growth factor receptor (P00533 whole entry): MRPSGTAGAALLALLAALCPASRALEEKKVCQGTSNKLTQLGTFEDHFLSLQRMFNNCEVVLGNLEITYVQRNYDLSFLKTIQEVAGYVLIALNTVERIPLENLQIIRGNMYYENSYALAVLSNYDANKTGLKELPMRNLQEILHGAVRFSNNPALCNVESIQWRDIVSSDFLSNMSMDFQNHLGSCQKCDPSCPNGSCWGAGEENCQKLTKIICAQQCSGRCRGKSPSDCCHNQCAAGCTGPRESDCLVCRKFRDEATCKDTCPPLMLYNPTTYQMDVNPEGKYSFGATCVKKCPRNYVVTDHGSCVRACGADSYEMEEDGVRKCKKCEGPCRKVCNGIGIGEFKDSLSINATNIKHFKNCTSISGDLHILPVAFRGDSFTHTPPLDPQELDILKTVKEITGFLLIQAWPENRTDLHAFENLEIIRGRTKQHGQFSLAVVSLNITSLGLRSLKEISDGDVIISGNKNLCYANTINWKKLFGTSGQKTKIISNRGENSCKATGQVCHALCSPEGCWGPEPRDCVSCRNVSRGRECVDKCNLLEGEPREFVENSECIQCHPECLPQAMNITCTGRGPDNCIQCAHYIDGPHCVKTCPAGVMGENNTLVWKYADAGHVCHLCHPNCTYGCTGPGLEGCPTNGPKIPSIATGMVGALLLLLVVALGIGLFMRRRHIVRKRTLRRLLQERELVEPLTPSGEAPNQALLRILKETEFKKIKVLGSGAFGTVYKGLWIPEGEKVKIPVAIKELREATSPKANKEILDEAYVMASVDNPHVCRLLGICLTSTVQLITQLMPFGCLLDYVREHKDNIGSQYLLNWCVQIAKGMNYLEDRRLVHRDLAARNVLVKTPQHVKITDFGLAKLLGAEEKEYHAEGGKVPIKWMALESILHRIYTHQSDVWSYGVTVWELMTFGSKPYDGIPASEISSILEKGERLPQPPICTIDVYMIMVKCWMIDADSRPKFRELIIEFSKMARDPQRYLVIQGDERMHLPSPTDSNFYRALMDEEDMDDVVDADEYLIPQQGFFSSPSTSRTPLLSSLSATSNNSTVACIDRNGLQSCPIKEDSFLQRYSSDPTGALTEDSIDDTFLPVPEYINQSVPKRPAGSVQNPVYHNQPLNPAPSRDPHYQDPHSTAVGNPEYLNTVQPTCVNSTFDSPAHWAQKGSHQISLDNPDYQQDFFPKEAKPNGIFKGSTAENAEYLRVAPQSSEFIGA

Regarding `N#Cc1c(-c2ccc(N3CCOCC3)cc2)csc1N`, in the data set on Rattus norvegicus, the Activity was 48.94%. By IC50 is commonly meant the concentration at which inhibition is half-maximal. On to `C/C(=N\N=C1/CS(=O)(=O)N(C)c2ccccc21)c1sccc1Cl`, for which the midpoint of inhibition in [1], the IC50, lay at 1.04 µM. `Cc1ccc2c(c1)n(CN1CCN(c3ccccc3)CC1)c(=O)n2CN1CCN(c2ccccc2)CC1` showed an IC50 in data set [2] of 0.11 µM. With `C/C(=N\N=C1/CS(=O)(=O)N(C)c2ccccc21)c1ccc(Br)s1`, the IC50 in data set [3] turned out to be 1.03 µM. As for `Cc1cc(Cl)ccc1-c1ccc(NC(=O)C(Cc2ccc(C(=O)NCCS(=O)(=O)O)s2)c2ccc(-c3ccc(OC(F)(F)F)cc3)cc2)cc1` (stereo unspecified), the IC50 at Glucagon receptor [4] was 4.4 µM; at Glucagon receptor [5] it was 6.1 µM.

A word on the half-life: it is the time needed for the level to fall by half in the phase considered. For `CNCC[C@H](Oc1cccc2ccccc12)c1cccs1` [DULOXETINE], the half-life in [6] is 12 h. As to `COc1ccc2c(c1)c(CC(=O)O)c(C)n2C(=O)c1ccc(Cl)cc1` [INDOMETHACIN], the Activity in the data set on Rattus norvegicus stood at 47.73%. Consider `Cc1nc2ccc(CN(C)c3ccc(C(=O)N[C@@H](CCC(=O)O)C(=O)O)s3)cc2c(=O)[nH]1` [RALTITREXED], for which the half-life in data set [6] was 192 h.

In the case of `COc1cc(/C=C/C(=O)c2cc3ccccc3s2)cc(OC)c1O`, the IC50 in data set [7] stood at 6 µM. For the molecule `COc1ccsc1CNCC[C@@]1(c2ccccn2)CCOC2(CCCC2)C1` [OLICERIDINE], the half-life in data set [8] is 1.3 h. `Cc1cc(C2=NO[C@@](c3cc(Cl)c(Cl)c(Cl)c3)(C(F)(F)F)C2)sc1C(=O)NCC(=O)NCC(F)(F)F` [LOTILANER] showed a half-life in data set [6] of 11 h. On to `O=c1c2ccccc2nc(-c2sc3ccccc3c2Cl)n1O`, for which the “inhibition zone (IZ)” value in the data set on Bacillus subtilis [9] was 15 mm; in the data set on Escherichia coli it was 16 mm. Broadly, the inhibition is how much of the control response was suppressed. Take `CCOC(=O)c1c(NC(=O)c2c(NC(=O)CC#N)sc3c2CCC3)sc2c1CCCC2`: the inhibition in data set [10] is 64.1%. For `Cc1c(NC(=O)Nc2ccc(OC(F)(F)F)cc2)sc2ccccc12`, the IC50 is 0.0113 µM in [11] and 0.0466 µM in data set [12]. On to `COc1ccc2c3ccnc(C)c3n(CC3CC(c4cccs4)=NO3)c2c1` (stereo unspecified), for which, in [13], 29.2 µM corresponded to half-maximal inhibition (IC50). In the case of `O=C(CSc1nnc(-c2sc3ccccc3c2Cl)[nH]1)c1ccc(F)cc1`, the “inhibition zone (IZ)” value with Bacillus subtilis [14] is on record as 16 mm; in the data set on Staphylococcus aureus, 15 mm. For `CO[C@@]1(NC(=O)Cc2cccs2)C(=O)N2C(C(=O)O)=C(COC(N)=O)CS[C@@H]21` [CEFOXITIN], the half-life in [8] worked out at 0.683 h. Usually GI50 stands for the concentration that inhibits growth by half. Regarding `CCOC(=O)c1cc(C(=O)N/N=C(/C)[C@H]2CC[C@H]3[C@@H]4CC=C5C[C@@H](O)CC[C@]5(C)[C@H]4CC[C@]23C)c(Nc2ccccc2)s1`, the GI50 in the data set on NCI-H460 stood at 0.01 µM; in the data set on MCF7, 0.01 µM; with SF-268, 0.03 µM.

Turning to `Cc1ccc(-c2cc(C(F)(F)F)nn2-c2ccc(S(N)(=O)=O)cc2)cc1` [CELECOXIB], the IC50 in [13] was 5.64 µM. Regarding `CC(=O)c1ccc(NC(=O)c2sc(Nc3ccccc3)c(C(=O)Nc3ccccc3)c2N)cc1`, the inhibition in [15] amounted to 62%. In data set [6], `Cc1ccsc1C(=CCCN1CCC[C@@H](C(=O)O)C1)c1sccc1C` [TIAGABINE] had a half-life of 7 h. Same read-out and setting: under `CONC(=O)Nc1ccc(-c2sc3c(c2CN(C)C)c(=O)n(-c2ccc(OC)nn2)c(=O)n3Cc2c(F)cccc2F)cc1` [RELUGOLIX] stands 25 h.

`COc1ccc(/C=C2\SC(=S)N(NC(=O)c3sc4ccccc4c3Cl)C2=O)cc1OC`: in data set [13], the IC50 stood at 2.33 µM. In general, EC50 refers to the concentration that produces a half-maximal response. As for `CCOC(=O)c1c(NC(=O)c2cccc(C(F)(F)F)c2F)sc2c1CC(C)(C)NC2(C)C`, the EC50 in the data set with Leishmania major came out at 0.09 µM. `CN1C(C(=O)Nc2ccccn2)=C(O)c2sccc2S1(=O)=O` [TENOXICAM]: the half-life in data set [6] was 72 h.
